{"source": "patent US11618743B2", "about": "“Herbicidal compounds” (SYNGENTA PARTICIPATIONS AG, priority 2017, dated 2023)", "test_in_all_cases": "Post-emergence efficacy, Method C", "assay_type_in_all_cases": "in vivo", "settings_in_all_cases": "Application Rate 400 g/Ha, evaluated at 21 days", "key": {"[1]": {"system": "Echinochloa crus-galli (ECHCG)", "procedure": "(§1) An “instant formulation”, known as the IF50, containing 50 g/L of the “technical” (i.e. unformulated) active ingredient was prepared by dissolving the active ingredient in a mixture of organic solvents and emulsifier, details of which are provided in the table. This IF50 was then mixed with a small, variable amount of acetone to aid dissolution, before addition of a 1% v/v aqueous solution of the adjuvant Empicol ESC70 3EO (Sodium lauryl ether sulphate) and 1% v/v Ammonium sulphate, as the aqueous diluent, to form an aqueous spray solution which contains a predetermined concentration of the active ingredient (which varies depending on the application rate of the active ingredient to the plants).\n(§2) Composition of the mixture of organic solvents and emulsifier used as a base for the instant formulation.\n(§3) This aqueous spray solution was then sprayed onto the plants after about 21 days' cultivation. The plants were grown from seeds sown in standard soil, placed in a glasshouse under controlled conditions (at 24/18° C., day/night; 14 hours light; 65% humidity). After spray application the plants were then grown on in a glasshouse under the same conditions and watered twice daily. The test was evaluated at 21 days (100=total damage to plant; 0=no damage to plant).\n(§4) Ipomoea hederacea (IPOHE), Amaranthus palmeri (AMAPA), Lolium perenne (LOLPE), Eleusine indica (ELEIN), Echinochloa crus-galli (ECHCG), Conyza canadensis (ERICA)"}, "[2]": {"system": "Ipomoea hederacea (IPOHE)", "procedure": "as §1, §2, §3, §4"}, "[3]": {"system": "Amaranthus palmeri (AMAPA)", "procedure": "as §1, §2, §3, §4"}, "[4]": {"system": "Conyza canadensis (ERICA)", "procedure": "as §1, §2, §3, §4"}, "Lolium perenne (LOLPE)": {"system": "Lolium perenne (LOLPE)", "procedure": "as §1, §2, §3, §4"}}, "data": [{"smiles": "Cl.O=S(=O)([O-])CC[n+]1ccc(-c2ccncc2)cn1", "note": "[Compound A27]", "values": [{"measurement": "Control of weed species after post-emergence application, ECHCG (100=total damage to plant; 0=no damage to plant)", "setting": "[1]", "value": 43}, {"measurement": "Control of weed species after post-emergence application, IPOHE (100=total damage to plant; 0=no damage to plant)", "setting": "[2]", "value": 90}, {"measurement": "Control of weed species after post-emergence application, AMAPA (100=total damage to plant; 0=no damage to plant)", "setting": "[3]", "value": 77}, {"measurement": "Control of weed species after post-emergence application, ERICA (100=total damage to plant; 0=no damage to plant)", "setting": "[4]", "value": 65}, {"measurement": "Control of weed species after post-emergence application, LOLPE (100=total damage to plant; 0=no damage to plant)", "setting": "Lolium perenne (LOLPE)", "value": 68}]}]}
